Assay results from patent US11214594B2, “Antimicrobial peptide having synergistic antibacterial effect with antibiotics on multidrug resistant bacteria, and use thereof” (priority 2016, dated 2022).
Where a SMILES comes first, the peptide text is derived from it. [ ]: non-standard residue; d: D form.

Assays:
Experiment in all cases: MIC of antibiotic during combined treatment with antimicrobial peptide
[1] = tested on: E. coli; type: cell-based, Escherichia coli; conditions: E. coli
In short: (§1)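 Checkerboard-type MIC of peptide–antibiotic mixtures in MH medium: the antibiotic was serially diluted in MH medium and added to wells, then the reversed arrangement was also tested.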

[2] = tested on: MDREC 1229; type: cell-based, Escherichia coli
In short: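 Strains in MH medium at 2×10^6 CFU/ml were mixed with peptide diluted stepwise (2:1) from its MIC, then antibiotic dilutions in MH medium were added to give the antibiotic MIC. The reversed set-up, peptide titrated against fixed antibiotic, gave the peptide MIC.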

[3] = tested on: A. baumannii; type: cell-based, Acinetobacter baumannii; conditions: A. baumannii
In short: as §1

[4] = peptide treatment concentration 1 μg/ml
[5] = peptide treatment concentration 2 μg/ml
[6] = peptide treatment concentration 4 μg/ml
[7] = peptide treatment concentration 6 μg/ml
[8] = peptide treatment concentration 8 μg/ml
[9] = peptide treatment concentration 16 μg/ml
[10] = peptide treatment concentration 32 μg/ml
[11] = peptide treatment concentration 64 μg/ml
[12] = combined with peptide at 1 μg/ml
[13] = combined with peptide at 2 μg/ml
[14] = combined with peptide at 4 μg/ml
[15] = combined with peptide at 6 μg/ml
[16] = combined with peptide at 8 μg/ml
[17] = combined with peptide at 16 μg/ml
[18] = combined with peptide at 32 μg/ml
[19] = combined with peptide at 64 μg/ml

## CC[C@H](C)[C@H](NC(=O)[C@H](CCCCN)NC(=O)[C@H](Cc1c[nH]c2ccccc12)NC(=O)[C@@H](N)CCCNC(=N)N)C(=O)N[C@@H](Cc1ccccc1)C(=O)N[C@@H](CCCCN)C(=O)N[C@@H](CCCCN)C(=O)N[C@H](C(=O)N[C@H](CC(C)C)C(=O)N[C@@H](CCCCN)C(=O)N[C@@H](CC(C)C)C(=O)N[C@@H](CC(C)C)C(=O)N[C@@H](Cc1c[nH]cn1)C(=O)N[C@@H](CCCCN)C(=O)N[C@@H](Cc1ccccc1)C(=O)N[C@@H](CCCCN)C(=O)N[C@@H](CCCCN)C(=O)N[C@@H](Cc1ccccc1)C(N)=O)[C@@H](C)CC [PapMA-21, RWK IFK KIl KLL HKF KKF-NH2] (H-RWKIFKKI[dL]KLLHKFKKF-NH2; N-terminus assumed)
[1]; linezolid combined with peptide at 1 μg/ml
  Antibiotic MIC, Linezolid: >128 µg/mL
[1]; linezolid combined with peptide at 2 μg/ml
  Antibiotic MIC, Linezolid: 128 µg/mL
[1]; linezolid combined with peptide at 4 μg/ml
  Antibiotic MIC, Linezolid: 64 µg/mL
[1]; linezolid combined with peptide at 6 μg/ml
  Antibiotic MIC, Linezolid: 32 µg/mL
[1]; linezolid combined with peptide at 8 μg/ml
  Antibiotic MIC, Linezolid: 16 µg/mL
[1]; linezolid combined with peptide at 16 μg/ml
  Antibiotic MIC, Linezolid: 8 µg/mL
[1]; linezolid combined with peptide at 32 μg/ml
  Antibiotic MIC, Linezolid: 0 µg/mL
[1]; linezolid combined with peptide at 64 μg/ml
  Antibiotic MIC, Linezolid: 0 µg/mL
[1]; vancomycin combined with peptide at 1 μg/ml
  Antibiotic MIC, Vancomycin: >128 µg/mL
[1]; vancomycin combined with peptide at 2 μg/ml
  Antibiotic MIC, Vancomycin: >128 µg/mL
[1]; vancomycin combined with peptide at 4 μg/ml
  Antibiotic MIC, Vancomycin: >128 µg/mL
[1]; vancomycin combined with peptide at 6 μg/ml
  Antibiotic MIC, Vancomycin: 64 µg/mL
[1]; vancomycin combined with peptide at 8 μg/ml
  Antibiotic MIC, Vancomycin: 32 µg/mL
[1]; vancomycin combined with peptide at 16 μg/ml
  Antibiotic MIC, Vancomycin: 8 µg/mL
[1]; vancomycin combined with peptide at 32 μg/ml
  Antibiotic MIC, Vancomycin: 0 µg/mL
[1]; vancomycin combined with peptide at 64 μg/ml
  Antibiotic MIC, Vancomycin: 0 µg/mL
[2]; [4]
  Antibiotic MIC, Erythromycin: 128 µg/mL
  Antibiotic MIC, Linezolid: >128 µg/mL
  Antibiotic MIC, Vancomycin: >128 µg/mL
[2]; [5]
  Antibiotic MIC, Erythromycin: 64 µg/mL
  Antibiotic MIC, Linezolid: >128 µg/mL
  Antibiotic MIC, Vancomycin: >128 µg/mL
[2]; [6]
  Antibiotic MIC, Erythromycin: 32 µg/mL
  Antibiotic MIC, Linezolid: 128 µg/mL
  Antibiotic MIC, Vancomycin: >128 µg/mL
[2]; [7]
  Antibiotic MIC, Erythromycin: 8 µg/mL
  Antibiotic MIC, Linezolid: 64 µg/mL
  Antibiotic MIC, Vancomycin: >128 µg/mL
[2]; [8]
  Antibiotic MIC, Erythromycin: 4 µg/mL
  Antibiotic MIC, Linezolid: 32 µg/mL
  Antibiotic MIC, Vancomycin: 128 µg/mL
[2]; [9]
  Antibiotic MIC, Erythromycin: 2 µg/mL
  Antibiotic MIC, Linezolid: 16 µg/mL
  Antibiotic MIC, Vancomycin: 16 µg/mL
[2]; [10]
  Antibiotic MIC, Erythromycin: 0 µg/mL
  Antibiotic MIC, Linezolid: 0 µg/mL
  Antibiotic MIC, Vancomycin: 0 µg/mL
[2]; [11]
  Antibiotic MIC, Erythromycin: 0 µg/mL
  Antibiotic MIC, Linezolid: 0 µg/mL
  Antibiotic MIC, Vancomycin: 0 µg/mL
[3]; [12]
  Antibiotic MIC, Erythromycin: 32 µg/mL
  Antibiotic MIC, Linezolid: >128 µg/mL
  Antibiotic MIC, Vancomycin: >128 µg/mL
[3]; [13]
  Antibiotic MIC, Erythromycin: 32 µg/mL
  Antibiotic MIC, Linezolid: >128 µg/mL
  Antibiotic MIC, Vancomycin: >128 µg/mL
[3]; [14]
  Antibiotic MIC, Erythromycin: 8 µg/mL
  Antibiotic MIC, Linezolid: 32 µg/mL
  Antibiotic MIC, Vancomycin: 64 µg/mL
[3]; [15]
  Antibiotic MIC, Erythromycin: 2 µg/mL
  Antibiotic MIC, Linezolid: 16 µg/mL
  Antibiotic MIC, Vancomycin: 32 µg/mL
[3]; [16]
  Antibiotic MIC, Erythromycin: 1 µg/mL
  Antibiotic MIC, Linezolid: 16 µg/mL
  Antibiotic MIC, Vancomycin: 16 µg/mL
[3]; [17]
  Antibiotic MIC, Erythromycin: 0.25 µg/mL
  Antibiotic MIC, Linezolid: 2 µg/mL
  Antibiotic MIC, Vancomycin: 8 µg/mL
[3]; [18]
  Antibiotic MIC, Erythromycin: 0 µg/mL
  Antibiotic MIC, Linezolid: 0 µg/mL
  Antibiotic MIC, Vancomycin: 0 µg/mL
[3]; [19]
  Antibiotic MIC, Erythromycin: 0 µg/mL
  Antibiotic MIC, Linezolid: 0 µg/mL
  Antibiotic MIC, Vancomycin: 0 µg/mL
